These results are taken from patent publication US11708348B2, “Protease inhibitors for treatment of coronavirus infections” (The Scripps Research Institute, priority 2021, dated 2023).

Molecules are shown by their SMILES. Where a name gives a salt, the structure may show the parent alone.

In the first assay the test system is SARS-CoV-2 strain USA-WA1/2020. Nature of the assay: microbe, parasite or virus in culture. It counts as cell-based. Conditions: HeLa-ACE2 cells, SARS-CoV-2 infection, 24 h; class symbols; read-out: EC50, uM (Hela).
As to `COc1cccc2[nH]c(C(=O)N[C@@H](CC(C)C)C(=O)N[C@@H](C[C@@H]3CCNC3=O)C(=O)COc3c(F)cccc3F)cc12` [Compound 2], the EC50 is 0.5 to 1 µM.

`COc1cccc2[nH]c(C(=O)N[C@@H](CC(C)C)C(=O)N[C@@H](C[C@@H]3CCNC3=O)C(=O)COC(=O)c3c(Cl)cccc3Cl)cc12` [Compound 3, (S)-3-((S)-2-(4-methoxy-1H-indole-2-carboxamido)-4-methylpentanamido)-2-oxo-4-((S)-2-oxopyrrolidin-3-yl)butyl 2,6-dichlorobenzoate]: the EC50 lay within 0.2 to 0.5 µM.

For the compound `COc1cccc2[nH]c(C(=O)N[C@@H](CC(C)C)C(=O)N[C@@H](C[C@@H]3CCNC3=O)C(=O)COc3c(F)cccc3F)cc12` [Compound 7, N-((S)-1-(((S)-4-(2,6-difluorophenoxy)-3-oxo-1-((S)-2-oxopyrrolidin-3-yl)butan-2-yl)amino)-4-methyl-1-oxopentan-2-yl)-4-methoxy-1H-indole-2-carboxamide], the EC50 was 0.2 to 0.5 µM.

In the case of `COc1cccc2[nH]c(C(=O)N[C@@H](CC(C)C)C(=O)N[C@@H](C[C@@H]3CCNC3=O)C(=O)COC(=O)c3c(Cl)cccc3Cl)cc12` [Compound 8, (S)-3-((S)-2-(4-methoxy-1H-indole-2-carboxamido)-4-methylpentanamido)-2-oxo-4-((S)-2-oxopyrrolidin-3-yl)butyl 2,6-dichlorobenzoate], the EC50 was 0.05 to 0.2 µM.

Still in this assay, the particulars now being: Severe acute respiratory syndrome coronavirus 2, HeLa-ACE2, 24 h, HeLa-ACE2 cells, SARS-CoV-2 infection, 24 h; cells given as a bound; read-out: EC50, uM (Hela).
Turning to `CC(C)C[C@H](NC(=O)OC1CCCC1)C(=O)N[C@@H](C[C@@H]1CCNC1=O)C(=O)COc1c(F)c(F)cc(F)c1F` [Compound 21, cyclopentyl ((S)-4-methyl-1-oxo-1-(((S)-3-oxo-1-((S)-2-oxopyrrolidin-3-yl)-4-(2,3,5,6-tetrafluorophenoxy)butan-2-yl)amino)pentan-2-yl)carbamate], the EC50 was more than 1 µM.

Staying with this assay, now noted: Severe acute respiratory syndrome coronavirus 2, HeLa-ACE2, 24 h, HeLa-ACE2 cells, SARS-CoV-2 infection, 24 h; class symbols; read-out: EC50, uM (Hela).
For `COc1cccc2[nH]c(C(=O)N[C@@H](CC(C)C)C(=O)N[C@@H](C[C@@H]3CCNC3=O)C(=O)COc3c(F)c(F)cc(F)c3F)cc12` [Compound 1, 4-methoxy-N-((S)-4-methyl-1-oxo-1-(((S)-3-oxo-1-((S)-2-oxopyrrolidin-3-yl)-4-(2,3,5,6-tetrafluorophenoxy)butan-2-yl)amino)pentan-2-yl)-1H-indole-2-carboxamide], the EC50 lay within 0.05 to 0.2 µM.

Take `CC(C)C[C@H](NC(=O)c1cc2ccccc2[nH]1)C(=O)N[C@@H](C[C@@H]1CCNC1=O)C(=O)COc1c(F)c(F)cc(F)c1F` [Compound 4, N-((S)-4-methyl-1-oxo-1-(((S)-3-oxo-1-((S)-2-oxopyrrolidin-3-yl)-4-(2,3,5,6-tetrafluorophenoxy)butan-2-yl)amino)pentan-2-yl)-1H-indole-2-carboxamide]: the EC50 was less than 0.05 µM.

Take `O=C(N[C@@H](CC1CCCCC1)C(=O)N[C@@H](C[C@@H]1CCNC1=O)C(=O)COc1c(F)c(F)cc(F)c1F)c1cc2ccccc2[nH]1` [Compound 5, N-((S)-3-cyclohexyl-1-oxo-1-(((S)-3-oxo-l-((S)-2-oxopyrrolidin-3-yl)-4-(2,3,5,6-tetrafluorophenoxy)butan-2-yl)amino)propan-2-yl)-1H-indole-2-carboxamide]: the EC50 was 0.05 to 0.2 µM.

Regarding `CC(C)C[C@H](NC(=O)c1ccccc1)C(=O)N[C@@H](C[C@@H]1CCNC1=O)C(=O)COc1c(F)c(F)cc(F)c1F` [Compound 9, N-((S)-4-methyl-1-oxo-1-(((S)-3-oxo-1-((S)-2-oxopyrrolidin-3-yl)-4-(2,3,5,6-tetrafluorophenoxy)butan-2-yl)amino)pentan-2-yl)benzamide], the EC50 was 0.05 to 0.2 µM.

Regarding `CC(C)C[C@H](NC(=O)C(=O)Nc1ccccc1)C(=O)N[C@@H](C[C@@H]1CCNC1=O)C(=O)COc1c(F)c(F)cc(F)c1F` [Compound 10, N1-((S)-4-methyl-1-oxo-1-(((S)-3-oxo-1-((S)-2-oxopyrrolidin-3-yl)-4-(2,3,5,6-tetrafluorophenoxy)butan-2-yl)amino)pentan-2-yl)-N2-phenyloxalamide], the EC50 was less than 0.05 µM.

Take `CC(C)CC[C@H](NC(=O)c1cc2cc(F)ccc2[nH]1)C(=O)N[C@@H](C[C@@H]1CCNC1=O)C(=O)COc1c(F)c(F)cc(F)c1F` [Compound 11, 5-fluoro-N-((S)-5-methyl-1-oxo-1-(((S)-3-oxo-1-((S)-2-oxopyrrolidin-3-yl)-4-(2,3,5,6-tetrafluorophenoxy)butan-2-yl)amino)hexan-2-yl)-1H-indole-2-carboxamide]: the EC50 was in the range of 0.2 to 0.5 µM.

For the compound `O=C(N[C@@H](CCc1ccccc1)C(=O)N[C@@H](C[C@@H]1CCNC1=O)C(=O)COc1c(F)c(F)cc(F)c1F)c1cc2cc(F)ccc2[nH]1` [Compound 12, 5-fluoro-N-((S)-1-oxo-1-(((S)-3-oxo-1-((S)-2-oxopyrrolidin-3-yl)-4-(2,3,5,6-tetrafluorophenoxy)butan-2-yl)amino)-4-phenylbutan-2-yl)-1H-indole-2-carboxamide], the EC50 was 0.5 to 1 µM.

Turning to `CC(C)(C)C[C@H](NC(=O)c1cc2cc(F)ccc2[nH]1)C(=O)N[C@@H](C[C@@H]1CCNC1=O)C(=O)COc1c(F)c(F)cc(F)c1F` [Compound 13, N-((S)-4,4-dimethyl-1-oxo-1-(((S)-3-oxo-1-((S)-2-oxopyrrolidin-3-yl)-4-(2,3,5,6-tetrafluorophenoxy)butan-2-yl)amino)pentan-2-yl)-5-fluoro-1H-indole-2-carboxamide], the EC50 was 0.5 to 1 µM.

For `O=C(N[C@@H](Cc1ccccc1)C(=O)N[C@@H](C[C@@H]1CCNC1=O)C(=O)COc1c(F)c(F)cc(F)c1F)c1cc2cc(F)ccc2[nH]1` [Compound 14, 5-fluoro-N-((S)-1-oxo-1-(((S)-3-oxo-1-((S)-2-oxopyrrolidin-3-yl)-4-(2,3,5,6-tetrafluorophenoxy)butan-2-yl)amino)-3-phenylpropan-2-yl)-1H-indole-2-carboxamide], the EC50 fell in the range of 0.05 to 0.2 µM.

For the compound `CC(C)C[C@H](NC(=O)OCc1ccccc1)C(=O)N[C@@H](C[C@@H]1CCNC1=O)C(=O)COc1c(F)c(F)cc(F)c1F` [Compound 15, benzyl ((S)-4-methyl-1-oxo-1-(((S)-3-oxo-1-((S)-2-oxopyrrolidin-3-yl)-4-(2,3,5,6-tetrafluorophenoxy)butan-2-yl)amino)pentan-2-yl)carbamate], the EC50 was in the range of 0.2 to 0.5 µM.

In the case of `CC(C)C[C@H](NC(=O)c1cc2cc(F)ccc2[nH]1)C(=O)N[C@@H](C[C@@H]1CCNC1=O)C(=O)COc1c(F)c(F)cc(F)c1F` [Compound 16, 5-fluoro-N-((S)-4-methyl-1-oxo-1-(((S)-3-oxo-1-((S)-2-oxopyrrolidin-3-yl)-4-(2,3,5,6-tetrafluorophenoxy)butan-2-yl)amino)pentan-2-yl)-1H-indole-2-carboxamide], the EC50 lay in the range of 0.05 to 0.2 µM.

`O=C(N[C@@H](Cc1ccc(C(F)(F)F)cc1)C(=O)N[C@@H](C[C@@H]1CCNC1=O)C(=O)COc1c(F)c(F)cc(F)c1F)c1cc2cc(F)ccc2[nH]1` [Compound 17, 5-fluoro-N-((S)-1-oxo-1-(((S)-3-oxo-1-((S)-2-oxopyrrolidin-3-yl)-4-(2,3,5,6-tetrafluorophenoxy)butan-2-yl)amino)-3-(4-(tri-fluoromethyl)phenyl)-propan-2-yl)-1H-indole-2-carboxamide]: the EC50 fell in the range of 0.2 to 0.5 µM.

With `CC(C)(F)C[C@H](NC(=O)c1cc2cc(F)ccc2[nH]1)C(=O)N[C@@H](C[C@@H]1CCNC1=O)C(=O)COc1c(F)c(F)cc(F)c1F` [Compound 18, 5-fluoro-N-((S)-4-fluoro-4-methyl-1-oxo-1-(((S)-3-oxo-1-((S)-2-oxopyrrolidin-3-yl)-4-(2,3,5,6-tetrafluorophenoxy)butan-2-yl)amino)pentan-2-yl)-1H-indole-2-carboxamide], the EC50 lay within 0.5 to 1 µM.

As to `COc1ccc(C[C@H](NC(=O)c2cc3cc(F)ccc3[nH]2)C(=O)N[C@@H](CC2CCNC2=O)C(=O)COc2c(F)c(F)cc(F)c2F)cc1` (stereo partly drawn) [Compound 19, 5-fluoro-N-((2S)-3-(4-methoxyphenyl)-1-oxo-1-(((2S)-3-oxo-1-(2-oxopyrrolidin-3-yl)-4-(2,3,5,6-tetrafluorophenoxy)butan-2-yl)amino)propan-2-yl)-1H-indole-2-carboxamide], the EC50 lay within 0.2 to 0.5 µM.

For `CC(C)C[C@H](NC(=O)c1ccc2ccccc2n1)C(=O)N[C@@H](C[C@@H]1CCNC1=O)C(=O)COc1c(F)c(F)cc(F)c1F` [Compound 20, N-((S)-4-methyl-1-oxo-1-(((S)-3-oxo-1-((S)-2-oxopyrrolidin-3-yl)-4-(2,3,5,6-tetrafluorophenoxy)butan-2-yl)amino)pentan-2-yl)quinoline-2-carboxamide], the half-maximal effective concentration (EC50) lay in the range of 0.2 to 0.5 µM.

On to `CC(C)C[C@H](NC(=O)OCc1cccc(Cl)c1)C(=O)N[C@@H](C[C@@H]1CCNC1=O)C(=O)COc1c(F)c(F)cc(F)c1F` [Compound 22, 3-chlorobenzyl ((S)-4-methyl-1-oxo-1-(((S)-3-oxo-1-((S)-2-oxopyrrolidin-3-yl)-4-(2,3,5,6-tetrafluorophenoxy)butan-2-yl)amino)pentan-2-yl)carbamate], for which the EC50 was 0.2 to 0.5 µM.

The same assay, now with this note: Severe acute respiratory syndrome coronavirus 2, HeLa-ACE2, 24 h, HeLa-ACE2 cells, SARS-CoV-2 infection, 24 h; read-out: EC50, uM (Hela).
As to `C[C@H](C[C@@H](O)C(=O)N1CC2(CC2)C[C@H]1C(=O)N[C@@H](C[C@@H]1CCNC1=O)C(=O)COC(F)(F)F)C(F)(F)F` (single isomer, unassigned) [Compound 426], the EC50 is less than 0.05 µM.

Take `CC[C@@H](NC(=O)OC(C)(C)C)C(=O)N1C[C@H]2[C@@H]([C@H]1C(=O)N[C@@H](CC1CCNC1=O)C(=O)COC(F)(F)F)C2(C)C` (stereo in doubt) [Compound 438, tert-butyl ((R)-1-((1R,2S,5S)-6,6-dimethyl-2-(((S)-3-oxo-1-((S)-2-oxopyrrolidin-3-yl)-4-(trifluoromethoxy)butan-2-yl)carbamoyl)-3-azabicyclo[3.1.0]-hexan-3-yl)-1-oxobutan-2-yl)carbamate]: the EC50 is less than 0.05 µM.

Still in this assay, the particulars now being: Severe acute respiratory syndrome coronavirus 2, HeLa-ACE2, 24 h; read-out: EC50, uM (Hela).
As for `CC(C)C[C@H](NC(=O)C(=O)Nc1ccccc1F)C(=O)N[C@@H](Cc1cnc[nH]1)C(=O)COc1c(F)c(F)cc(F)c1F` (single isomer, unassigned) [Compound 135, trifluoroacetate], the EC50 fell in the range of 0.5 to 1 µM.
